# Test results reported in patent US20250092065A1, “2-(INDAZOL-5-YL)-6-(PIPERIDIN-4-YL)-1,7-NAPHTHYRIDINE DERIVATIVES AND RELATED COMPOUNDS AS MODULATORS FOR SPLICING NUCLEIC ACIDS AND FOR THE TREATMENT OF PROLIFERATIVE DISEASES” (REMIX THERAPEUTICS INC., priority 2022, published 2025).
# Like-named read-outs stand apart in the source and are kept apart here.
# Experiments:
# HTT = assay: HiBiT protein abundance assay, HTT (K562 HiBiT knock-in); format: cell-based, human; settings: HiBiT knock-in K562 cells, 24 hours, top dose 10 μM
# Summary of the method: (§1)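 Tagged-protein levels were measured as HiBiT/LgBiT luminescence in lysed K562 knock-in cells exposed to serially diluted compound (up to 10 μM final) for 24 hours. A four-parameter logistic regression of control-normalized signal yielded the IC50.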
# Target C = assay: HiBiT protein abundance assay, Target C (K562 HiBiT knock-in); format: cell-based, human; settings: HiBiT knock-in K562 cells, 24 hours, top dose 10 μM
# Summary of the method: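 K562 HiBiT knock-in cells (10000/well) were treated 24 h at 37° C with a 10-point 3-fold dilution series (top 10 μM final, ≤0.25% DMSO). HiBiT luminescence was read after lytic LgBiT detection. Percent response used unmodified K562 and DMSO-treated knock-in controls, and IC50 came from a four-parameter fit at 50% of untreated.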
# MYB = assay: HiBiT protein abundance assay, MYB (K562 HiBiT knock-in); format: cell-based, human; settings: HiBiT knock-in K562 cells, 24 hours, top dose 10 μM
# Summary of the method: as §1
# K562 cells = assay: Cell Titer Glo 2.0 cell viability (toxicity) assay, K562; settings: 500 cells/well, 72 hours
# MYB mRNA = assay: RT-qPCR splicing assay, MYB mRNA canonical (CJ) and alternative (AJ) junction; format: cell-based, human; settings: Homo sapiens; for AC50: MYB alternative junction mRNA, read-out: MYB AJ (increase in AJ mRNA, AC50)
# Summary of the method: (§2)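 Both isoforms, CJ and AJ, read by qPCR from crude lysates of treated A673 or K562 cells; 24 h, 37 °C, maximum 10 uM. Normalization: housekeeper ΔCt, then DMSO ΔΔCt.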
# HTT mRNA = assay: RT-qPCR splicing assay, HTT mRNA canonical (CJ) and alternative (AJ) junction; format: cell-based, human; settings: Homo sapiens; for AC50: HTT alternative junction mRNA, read-out: HTT AJ (increase in AJ mRNA, AC50)
# Summary of the method: as §2
# SMN2 mRNA = assay: RT-qPCR splicing assay, SMN2 mRNA; format: cell-based, human; settings: Homo sapiens, canonical junction qPCR panel, Table 4; read-out: SMN2 IC50 (decrease in CJ mRNA levels)
# Summary of the method: as §2
# [1] = MYB canonical junction mRNA, RT-qPCR, read-out: MYB CJ (decrease in CJ mRNA levels, IC50)
# [2] = canonical junction qPCR panel, Table 4, read-out: MYB IC50 (decrease in CJ mRNA levels)
# [3] = HTT canonical junction mRNA, RT-qPCR, read-out: HTT CJ (decrease in CJ mRNA levels, IC50)
# [4] = canonical junction qPCR panel, Table 4, read-out: HTT IC50 (decrease in CJ mRNA levels)
SMILES,IC50 (HTT),IC50 (Target C),IC50 (MYB),"Effect of Exemplary Compounds on Cell Viability, K562 (K562 cells)",AC50 (MYB mRNA; RT-qPCR),IC50 (MYB mRNA; [1]),IC50 (MYB mRNA; [2]),AC50 (HTT mRNA; RT-qPCR),IC50 (HTT mRNA; [3]),IC50 (HTT mRNA; [4]),IC50 (SMN2 mRNA)
Cc1c(O)c(-c2ccc3nc(N4CC[C@@H](NC5(C)CC5)C4)ccc3n2)cc2cn(C)nc12 [Compound 225],< 100 nM,< 100 nM,< 100 nM,B (B represents 100-1000 nM),< 100 nM,< 100 nM,< 100 nM,< 100 nM,< 100 nM,< 100 nM,< 100 nM
Cc1c(O)c(-c2ccc3nc(N4CC[C@H](NC5(C)CC5)C4)ccc3n2)cc2cn(C)nc12 [Compound 226],< 100 nM,< 100 nM,< 100 nM,B (B represents 100-1000 nM),100 to 1000 nM,< 100 nM,< 100 nM,< 100 nM,< 100 nM,< 100 nM,< 100 nM
Cc1nc2cc(O)c(-c3ccc4nc(N5CCC(NC6CCC6)C5)ccc4n3)cc2o1 (stereo not shown) [Compound 228],< 100 nM,100 to 1000 nM,< 100 nM,B (B represents 100-1000 nM),< 100 nM,100 to 1000 nM,100 to 1000 nM,< 100 nM,< 100 nM,< 100 nM,< 100 nM
Cc1nc2cc(O)c(-c3ccc4nc(N5CC[C@@H](NC(C)C)C5)ccc4n3)cc2o1 [Compound 232],< 100 nM,< 100 nM,< 100 nM,A (A represents <100 nM),< 100 nM,< 100 nM,< 100 nM,< 100 nM,< 100 nM,< 100 nM,< 100 nM
Cc1nc2cc(O)c(-c3ccc4nc(N5CC[C@H](NC(C)C)C5)ccc4n3)cc2o1 [Compound 233],< 100 nM,< 100 nM,< 100 nM,B (B represents 100-1000 nM),< 100 nM,< 100 nM,< 100 nM,< 100 nM,< 100 nM,< 100 nM,< 100 nM
Cc1nc2cc(O)c(-c3ccc4nc(N5CCC(N)C5)ccc4n3)cc2o1 (stereo not shown) [Compound 234],< 100 nM,< 100 nM,< 100 nM,A (A represents <100 nM),< 100 nM,100 to 1000 nM,100 to 1000 nM,< 100 nM,100 to 1000 nM,100 to 1000 nM,< 100 nM
Cn1cc2cc(-c3ccc4nc(N5CCC(N)C5)ccc4n3)c(O)c(F)c2n1 (stereo not shown) [Compound 238],< 100 nM,< 100 nM,< 100 nM,A (A represents <100 nM),< 100 nM,< 100 nM,< 100 nM,< 100 nM,< 100 nM,< 100 nM,< 100 nM
Cn1cc2cc(-c3ccc4nc(N5CC[C@@H](NCC(F)(F)F)C5)ccc4n3)c(O)cc2n1 [Compound 245],1000 to 10000 nM,> 10000 nM,> 10000 nM,D (D represents greater than 10 μM in K562 cells),> 10000 nM,> 10000 nM,> 10000 nM,> 10000 nM,> 10000 nM,> 10000 nM,1000 to 10000 nM
Cn1cc2cc(-c3ccc4nc(N5CC[C@@H](N[C@H]6C[C@H](F)C6)C5)ccc4n3)c(O)cc2n1 [Compound 246],< 100 nM,< 100 nM,< 100 nM,B (B represents 100-1000 nM),< 100 nM,< 100 nM,< 100 nM,< 100 nM,< 100 nM,< 100 nM,< 100 nM
Cn1cc2cc(-c3ccc4nc(N5CC[C@H](N[C@H]6C[C@H](F)C6)C5)ccc4n3)c(O)cc2n1 [Compound 247],100 to 1000 nM,100 to 1000 nM,100 to 1000 nM,B (B represents 100-1000 nM),< 100 nM,< 100 nM,< 100 nM,100 to 1000 nM,< 100 nM,< 100 nM,< 100 nM
Cc1nc2c(F)c(O)c(-c3ccc4nc(N5CC[C@@H](NC6CC6)C5)ccc4n3)cc2o1 [Compound 253],< 100 nM,< 100 nM,< 100 nM,A (A represents <100 nM),< 100 nM,< 100 nM,< 100 nM,< 100 nM,< 100 nM,< 100 nM,< 100 nM
Cc1nc2c(F)c(O)c(-c3ccc4nc(N5CC[C@H](NC6CC6)C5)ccc4n3)cc2o1 [Compound 254],< 100 nM,< 100 nM,< 100 nM,A (A represents <100 nM),< 100 nM,< 100 nM,< 100 nM,< 100 nM,< 100 nM,< 100 nM,< 100 nM
Cc1nc2c(F)c(O)c(-c3ccc4nc(N5CC[C@H](NC(C)(C)C)C5)ccc4n3)cc2o1 [Compound 255],< 100 nM,< 100 nM,< 100 nM,A (A represents <100 nM),< 100 nM,< 100 nM,< 100 nM,< 100 nM,< 100 nM,< 100 nM,< 100 nM
Cc1nc2cc(O)c(-c3ccc4nc(N5CC[C@H](NC6(C)CC6)C5)ccc4n3)cc2o1 [Compound 257],< 100 nM,< 100 nM,< 100 nM,B (B represents 100-1000 nM),< 100 nM,< 100 nM,< 100 nM,< 100 nM,< 100 nM,< 100 nM,< 100 nM
